Key:
PAECs [1] = assay: Proliferation of PAECs (cell count, BrdU pulse, PCNA staining); format: cell-based, human
Method: A-C) PAECs were plated on soft (1 kPa) or stiff (50 kPa) matrix and exposed to indicated treatments. Apoptosis (A-C) and proliferation (B-C) were quantified 48 h after plating. […] Apoptosis (as reflected by cleaved caspase-3 staining, CC-3+) was increased by serum starvation in both soft and stiff conditions but was not affected by GLS1 inhibition. In all panels, mean expression in control groups (soft matrix) was assigned a fold change of 1, to which relevant samples were compared. Data are expressed as mean±SD (*P<0.05; ** P<0.01, ***P<0.001).
(§1) After various indicated treatments, cultured cells were fixed with PBS/PFA 4% for 10 min and permeabilized with PBS/Triton 100×0.1% for 10 min. The cells were then incubated with anti-PCNA (#4912; 1/100; Invitrogen), anti-Ki67 (ab15580; 1/200; Abcam), and/or anti-cleaved caspase-3 (1/200; Cell Signaling) at room temperature for 2 hours. Secondary antibodies coupled with Alexa-594 and/or Alexa-488 (Thermo Scientific) were used at 1/500. Nuclei were counterstained with DAPI (Sigma).
After specified pre-treatment or transfection protocols as indicated, PAECs or PASMCs were plated in triplicate in 6 well plates at 30 000 cells per well. After overnight incubation for cells to adhere, 6 wells were counted to determine initial count at time of treatments (glutamate, aspartate, BPTES, DON or C968). After 2 days, 4 days or 6 days, the contents of the wells were trypsinized and counted, and proliferation rate was calculated.
Exponentially growing cells were plated in the indicated matrix for 48 hours.

GLS1 = assay: Targeted LC-MS/MS of intracellular metabolites in PAECs on soft or stiff matrix with GLS inhibitors; format: cell-based, human; conditions: BPTES 10 μM, DON 5 μM; for glutamate and aspartate / glutamine, pyruvate, and succinate / lactate: compared with stiff matrix control; for alterations of metabolite expression in stiff matrix (stiffness-induced glutamine consumption, glutamate production, aspartate production) / lactate/pyruvate ratio (glycolysis): C968 10 μM, stiff matrix
Method: HEK293T cells (American Type Culture Collection) were cultivated in DMEM containing 10% fetal bovine serum (FBS). Primary human pulmonary arterial endothelial cells (PAECs) were grown in EGM-2 cell culture media (Lonza), and experiments were performed at passages 3 to 6. Primary human pulmonary arterial smooth muscle cells (PASMCs) were cultured in SmGM-2 cell culture media (Lonza), and experiments were performed at passages 3 to 9. Inhibitors of GLS1 (2, 3): BPTES (Bis-2-(5-phenylacetamido-1,3,4-thiadiazol-2-yl)ethyl sulphide), DON (6-Diazo-5-oxo-L-norleucine), and C968 (Glutaminase Inhibitor, Compound 968, 5-(3-Bromo-4-(dimethylamino)phenyl)-2,2-dimethyl-2,3,5,6-tetrahydrobenzo[a]phenanthridin-4(1H)-one) were purchased from Sigma-Aldrich and used at concentration of 10 μM, 5 μM and 10 μM respectively. Glutamate was purchased from Sigma Aldrich and used at concentration of 2 mM. Aspartate was purchased from Sigma Aldrich and used at concentration of 10 mM.
Metabolite extraction was performed essentially as described with minor modifications (35). Briefly, metabolites were extracted from cultured cells and CD31+ cells on dry ice using 80% aqueous methanol pre-cooled at −80° C. Metabolites were extracted from plasma pre-cleared by centrifugation at 20,000×g for 10 min at 4° C. Supernatants were extracted with four volumes of 100% methanol pre-cooled at −80° C. for four hours at −80° C. An internal standard, [^13C4]-2-oxoglutarate (Cambridge Isotope Laboratories) was added during metabolite extraction. Insoluble material from both cell and plasma extractions was removed by centrifugation at 20,000×g for 15 min at 4° C. The supernatant was analysed by targeted LC-MS/MS as previously described (36). Metabolites were separated using a ZIC-HILIC stationary phase (150 mm×2.1 mm×[…]; Merck). The MS parameters were optimized using a glutamine standard solution. Monitored mass transitions were 87>87 (pyruvate), 115>73+99 (succinate), 132>88 (aspartate), 145>101 (20G), […] (glutamine), 146>128 (glutamate), and 149>105 ([^13C4]-20G). Mass transitions and retention time windows were confirmed by the analysis of neat and matrix-spiked standards. Peak areas were quantified by Xcalibur Software (Thermo) and manually reviewed.
To determine whether GLS1 is critical for stiffness-induced and YAP/TAZ-dependent glutaminolysis, PAECs were cultivated in soft or stiff matrix, and exposed to known inhibitors of two isoforms of GLS1 (KGA and GAC), BPTES (Bis-2-(5-phenylacetamido-1,3,4-thiadiazol-2-yl)ethyl sulphide), DON (6-Diazo-5-oxo-L-norleucine), or CB-968 (glutaminase inhibitor, compound 968, C-968) (FIG. 3A-C) or siRNA (si-GLS; FIG. 3D-G). As quantified by LC-MS/MS, inhibition of GLS in PAECs blunted the stiffness-induced processes of glutamine consumption, glutamate production, and aspartate production (FIGS. 3A and E). […] Similar alterations of metabolic activity were observed when inhibiting GLS1 in PASMCs (data not shown).

PAAFs [2] = assay: Metabolic activation of PAAFs cultivated on stiff matrix; format: cell-based
From the text: (§2) A-C) Pharmacological inhibition of GLS1 by either BPTES, C968 or CB839 blunted metabolic activation of PAAFs cultivated on stiff matrix as reflected by decreased glutaminolysis (A), glycolysis (B) and aspartate production (C). D-E) Pharmacological inhibition of GLS1 by either BPTES, C968 or CB839 decreased PAAFs dependent ECM remodelling upon stimulation by pro-inflammatory cytokines (EDN1, IL6 or TGF-b). […] G-H) Fibrilar collagen visualization (G) and quantification (H) by picrosirius red staining confirmed a decreased of ECM remodelling by activated PAAF (TGF-b) in presence of GLS1 inhibitors. I-M) PAAFs were cultivated upon indicated treatments. Cells were removed and pulmonary arterial endothelial cells (PAECs) were cultivated on the matrix synthesized by the PAAF. […] Data are expressed as mean±SEM (*P<0.05, § P<0.01, #P<0.001) of at least 3 independent experiments performed in triplicate. Paired samples were compared by 2-tailed Student's t test, while 1-way ANOVA and post-hoc Tukey's tests were used for group comparisons.

PAECs [3] = assay: Apoptosis of PAECs on soft or stiff matrix (caspase 3/7 activity, cleaved caspase-3 staining); format: cell-based, human
Method: A-C) PAECs were plated on soft (1 kPa) or stiff (50 kPa) matrix and exposed to indicated treatments. Apoptosis (A-C) and proliferation (B-C) were quantified 48 h after plating. […] In all panels, mean expression in control groups (soft matrix) was assigned a fold change of 1, to which relevant samples were compared. Data are expressed as mean±SD (*P<0.05; ** P<0.01, ***P<0.001).
as §1
Caspase 3/7 activity was quantified using the Caspase-Glo 3/7 Assay (Promega), according to manufacturer's instructions. Briefly, cells were plated on hydrogel of different stiffness and treated as described. Twenty four hours after plating, cells were cultured in the presence or absence of serum for twenty-four hours. Cells were then lysed and 10 μg of total protein were incubated for 1 h with the caspase substrates, and luminescence was quantified by plate reader (SynergyHTX multi-mode reader, Biotek).

PAAFs [4] = assay: PAAF-dependent ECM remodelling on cytokine stimulation (RT-qPCR, picrosirius red); format: cell-based; conditions: stimulation by pro-inflammatory cytokines (EDN1, IL6 or TGF-b)
From the text: as §2
Messenger RNAs were reverse transcribed using the Multiscript RT kit (Life Technologies) to generate cDNA. cDNA was amplified via fluorescently labeled Taqman primer sets using an Applied Biosystems 7900HT Fast Real Time PCR device. To specifically determine the relative expression of the two GLS1 isoforms KGA and GAC, TaqMan gene expression assays Hs01014019_m1 and Hs01022166_m1 were used respectively. Fold-change of RNA species was calculated using the formula (2^−ΔΔCt), normalized to RPLP0 expression.
Picrosirius Red stain was achieved through the use of 5 μm paraffin sections stained with 0.1% Picrosirius Red (Direct Red80, Sigma-Aldrich) and counterstained with Weigert's hematoxylin to reveal fibrillar collagen. The sections were then serially imaged using with an analyzer and polarizer oriented parallel and orthogonal to each other. Microscope conditions (lamp brightness, condenser opening, objective, zoom, exposure time, and gain parameters) were maintained throughout the imaging of all samples. A minimal threshold was set on appropriate control sections for each experiment in which only the light passing through the orthogonally-oriented polarizers representing fibrous structures (i.e., excluding residual light from the black background) was included. The threshold was maintained for all images across all conditions within each experiment. The area of the transferred regions that was covered by the thresholded light was calculated and at least 10 sections/vessel per condition were averaged together (NIH ImageJ software). Targeted LC-MS/MS

| SMILES | cellular proliferation in cells with diminished GLS1 or YAP/TAZ (PAECs [1]; PAECs or PASMCs with siRNA knockdown, glutamate 2 mM, aspartate 10 mM supplementation, data not shown) | glutamate and aspartate (GLS1) | glutamine, pyruvate, and succinate (GLS1) | lactate (GLS1) | alterations of metabolite expression in stiff matrix (stiffness-induced glutamine consumption, glutamate production, aspartate production) (GLS1) | lactate/pyruvate ratio (glycolysis) (GLS1) | aspartate production (PAAFs [2]) | glutaminolysis (PAAFs [2]) | glycolysis (PAAFs [2]) | metabolic activation of PAAFs (PAAFs [2]) | apoptosis (cleaved caspase-3 staining, CC-3+) (PAECs [3]; serum starvation, soft and stiff conditions) | caspase 3/7 activity (PAECs [3]; soft (1 kPa) or stiff (50 kPa) matrix, 24 h after serum depletion, vs vehicle control) | proliferation in stiff matrix (PCNA+) (PAECs [1]; PAECs, stiff matrix, 48 h after plating) | PAAFs dependent ECM remodelling (PAAFs [4]) |
| --- | --- | --- | --- | --- | --- | --- | --- | --- | --- | --- | --- | --- | --- | --- |
| N[C@@H](CCC(=O)O)C(=O)O [glutamate, Glutamate] | at least partially restored | – | – | – | – | – | – | – | – | – | – | – | – | – |
| O=C(Cc1ccccc1)Nc1nnc(CCSCCc2nnc(NC(=O)Cc3ccccc3)s2)s1 [BPTES, Bis-2-(5-phenylacetamido-1,3,4-thiadiazol-2-yl)ethyl sulphide] | – | decreased | increased | decreased | blunted | decreased | decreased | decreased | decreased | blunted | not affected | No significant changes | decreased | decreased |
| [N-]=[N+]=CC(=O)CC[C@H](N)C(=O)O [DON, 6-Diazo-5-oxo-L-norleucine] | – | decreased | increased | decreased | blunted | decreased | – | – | – | – | – | – | – | – |
